Some test systems named below: ACHN renal; HOP-62 NSCLC; MCF7 breast; MDA-MB-435; NCI-H226 lung; NCI-H460 lung; NCI/ADR-RES ovarian; RXF 393 renal; SK-MEL-2 melanoma; SK-OV-3 ovarian.
Common to all, as to assay: NCI-60 cell line screen, 48 h

The structures appear in SMILES notation.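 Protocol summary: plate cells (96-well), add compound at 5 concentrations, incubate 48 h, interpolate endpoints linearly. At the TGI there is no net growth.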

In the case of `Cc1ccc(C(=O)c2[nH]c(Nc3cc(C)ccn3)c(C(=S)Nc3ccccc3)c2N)cc1`, the TGI in the assay with ACHN renal, with HOP-62 NSCLC, with MCF7 breast, in the assay with MDA-MB-435, with NCI-H226 lung and in the assay with NCI-H460 lung was > 100 µM throughout. The TGI in the assay with NCI/ADR-RES ovarian, in the assay on RXF 393 renal, in the assay with SK-MEL-2 melanoma and with SK-OV-3 ovarian was > 100 µM in each case.
On to `CC1=CCC[C@H]2[C@](C)(CC3=CC(=O)C4SCCSC4C3=O)[C@@H](C)CC[C@]12C` (stereo partly drawn), for which the TGI stood at 46.1 µM in the assay with ACHN renal; 31.1 µM with HOP-62 NSCLC; 63.8 µM in the assay on MCF7 breast; 58.7 µM in the assay on MDA-MB-435; 30.3 µM in the assay with NCI-H226 lung; 65 µM with NCI-H460 lung. Further, the figures for the TGI in the assay with NCI/ADR-RES ovarian, in the assay with RXF 393 renal and in the assay with SK-MEL-2 melanoma were 47.2 µM, 44.8 µM and 23.2 µM, respectively.
Consider `NS(=O)(=O)c1nnc(NSc2ccc([N+](=O)[O-])cc2)s1`, for which the TGI in the assay on ACHN renal, in the assay on HOP-62 NSCLC, in the assay with MCF7 breast, in the assay on MDA-MB-435, in the assay with NCI-H226 lung and in the assay with NCI-H460 lung was > 100 µM each time. Besides, the TGI with NCI/ADR-RES ovarian, with RXF 393 renal, with SK-MEL-2 melanoma and with SK-OV-3 ovarian was > 100 µM each time.
In the case of `CCN(C(=O)N[C@H](C(=O)N[C@@H](C)C(=O)OC)C(C)C)c1ccccc1`, the TGI in the assay with ACHN renal was > 100 µM; in the assay on HOP-62 NSCLC it was > 100 µM; with MCF7 breast it was > 100 µM; in the assay with MDA-MB-435, 52.2 µM; with NCI-H226 lung, > 100 µM; in the assay on NCI-H460 lung it was 66.2 µM. Besides, the TGI with NCI/ADR-RES ovarian is > 100 µM; with RXF 393 renal it was > 100 µM; in the assay with SK-MEL-2 melanoma, 78.3 µM; with SK-OV-3 ovarian, > 100 µM.
As for `NC(=S)N=Nc1c(O)cc(Nc2ccc(Cl)cc2Cl)c2ccccc12`, the TGI in the assay with ACHN renal was 27.5 µM; with HOP-62 NSCLC, 22.4 µM; in the assay on MCF7 breast, > 100 µM; in the assay with MDA-MB-435 it was > 100 µM; in the assay with NCI-H226 lung, > 100 µM; in the assay on NCI-H460 lung, > 100 µM. The TGI was > 100 µM in the assay on NCI/ADR-RES ovarian, 51.4 µM with RXF 393 renal, > 100 µM with SK-MEL-2 melanoma and 61.5 µM in the assay on SK-OV-3 ovarian.
For `C[C@@H]1C(=O)CC2(O)[C@@]13C[C@@H](OC(=O)[C@@H]3O)[C@@H](C)[C@@]21COC1=O` (stereo partly drawn), the TGI in the assay with ACHN renal, in the assay with HOP-62 NSCLC, with MCF7 breast, in the assay with MDA-MB-435, with NCI-H226 lung and in the assay on NCI-H460 lung was > 100 µM throughout. The TGI in the assay on NCI/ADR-RES ovarian, with RXF 393 renal, in the assay with SK-MEL-2 melanoma and with SK-OV-3 ovarian was > 100 µM each time.
For `CCOC(=O)Cc1nn2c(=O)cc(C)nc2s1`, the TGI in the assay on ACHN renal, with HOP-62 NSCLC, with MCF7 breast, in the assay with MDA-MB-435, with NCI-H226 lung and with NCI-H460 lung was > 100 µM throughout. The TGI in the assay on NCI/ADR-RES ovarian, with RXF 393 renal, with SK-MEL-2 melanoma and in the assay on SK-OV-3 ovarian was > 100 µM each time.
On to `CN1c2ccccc2C(=O)NC12CCN(CC1COc3ccccc3O1)CC2` (stereo not drawn), for which the TGI in the assay on ACHN renal was > 100 µM; in the assay with HOP-62 NSCLC, > 100 µM; in the assay with MCF7 breast, > 100 µM; in the assay with MDA-MB-435, > 100 µM; in the assay with NCI-H226 lung, 87.4 µM; with NCI-H460 lung, > 100 µM. The TGI with NCI/ADR-RES ovarian, in the assay with RXF 393 renal and with SK-OV-3 ovarian was > 100 µM throughout.
`CC(C)(C)OC(=O)c1ccc(NCc2cc(O)ccc2O)cc1`: the TGI in the assay with ACHN renal is 3.46 µM; with HOP-62 NSCLC, 41.3 µM; in the assay on MCF7 breast it was 18.4 µM; in the assay with MDA-MB-435, 16.1 µM; with NCI-H226 lung, 8.64 µM; with NCI-H460 lung it was > 73.8 µM. For the same molecule, the TGI in the assay with NCI/ADR-RES ovarian was 12.5 µM; in the assay with RXF 393 renal it was 3.35 µM; with SK-MEL-2 melanoma, 18.8 µM; in the assay on SK-OV-3 ovarian it was 44.3 µM.
Regarding `C=C1CC=CC(C)(C)C1C/C=C(\C)C(O)CBr` (stereo not drawn), the TGI in the assay with ACHN renal, with HOP-62 NSCLC, in the assay on MCF7 breast, in the assay with MDA-MB-435, in the assay with NCI-H226 lung and with NCI-H460 lung was > 100 µM each time. In addition, the TGI in the assay with NCI/ADR-RES ovarian was 63.2 µM; in the assay on RXF 393 renal, > 100 µM; in the assay on SK-MEL-2 melanoma, > 100 µM; in the assay on SK-OV-3 ovarian, > 100 µM.
As to `COC(=O)C1=C(C)N2[C@H](C(=O)O)CS[C@@]2(C)[C@H](C(=O)OC)[C@H]1c1cccc([N+](=O)[O-])c1`, the TGI in the assay with ACHN renal, in the assay on HOP-62 NSCLC, in the assay on MCF7 breast, in the assay on MDA-MB-435, in the assay on NCI-H226 lung and in the assay on NCI-H460 lung was > 100 µM throughout. Further, the TGI with NCI/ADR-RES ovarian, with RXF 393 renal, with SK-MEL-2 melanoma and with SK-OV-3 ovarian was > 100 µM each time.
For `COc1ccc(N2C(=O)C3c4[nH]c5ccccc5c4C4C(C)CCCC4C3C2=O)cc1` (stereo not drawn), the TGI in the assay with ACHN renal was > 100 µM; in the assay with HOP-62 NSCLC, > 96.2 µM; in the assay on MCF7 breast, > 100 µM; with MDA-MB-435, > 30.2 µM; in the assay on NCI-H226 lung it was > 100 µM; in the assay on NCI-H460 lung, > 100 µM. For the same molecule, the TGI in the assay with NCI/ADR-RES ovarian is > 100 µM; with RXF 393 renal it was > 72.6 µM; with SK-MEL-2 melanoma, > 100 µM; in the assay with SK-OV-3 ovarian, > 100 µM.
Regarding `O=C(/C=C1\C[C@H]2C=Nc3ccccc3C(=O)N2C1)NCCCCCNC(=O)/C=C1\C[C@H]2C=Nc3ccccc3C(=O)N2C1`, the TGI with ACHN renal was 3.88 µM; in the assay with HOP-62 NSCLC, 31.8 µM; with MCF7 breast, 33.6 µM; in the assay on MDA-MB-435 it was 19 µM; in the assay with NCI-H226 lung, > 70.4 µM; in the assay on NCI-H460 lung, 36.6 µM. Besides, the TGI in the assay on NCI/ADR-RES ovarian was 55.9 µM; with RXF 393 renal it was 11.6 µM; in the assay with SK-MEL-2 melanoma, 29.2 µM; in the assay with SK-OV-3 ovarian, 30.3 µM.

These data come from PubChem BioAssay (NCI).
